Consider four compounds from US7868008B2, “Substituted isoindolones and their use as metabotropic glutamate receptor potentiators” (AstraZeneca AB, priority 2005, dated 2011).

Molecules are shown by their SMILES. pEC50: −log10 of the molar value.

This experiment deals with T1, human mGluR2 (Homo sapiens, UniProt Q14416).
T1 construct: chimeric mGluR2/CaR construct comprising the extracellular and transmembrane domains of human mGluR2 and the intracellular domain of the human calcium receptor, fused
T1 sequence (Q14416 19-819 limits assumed): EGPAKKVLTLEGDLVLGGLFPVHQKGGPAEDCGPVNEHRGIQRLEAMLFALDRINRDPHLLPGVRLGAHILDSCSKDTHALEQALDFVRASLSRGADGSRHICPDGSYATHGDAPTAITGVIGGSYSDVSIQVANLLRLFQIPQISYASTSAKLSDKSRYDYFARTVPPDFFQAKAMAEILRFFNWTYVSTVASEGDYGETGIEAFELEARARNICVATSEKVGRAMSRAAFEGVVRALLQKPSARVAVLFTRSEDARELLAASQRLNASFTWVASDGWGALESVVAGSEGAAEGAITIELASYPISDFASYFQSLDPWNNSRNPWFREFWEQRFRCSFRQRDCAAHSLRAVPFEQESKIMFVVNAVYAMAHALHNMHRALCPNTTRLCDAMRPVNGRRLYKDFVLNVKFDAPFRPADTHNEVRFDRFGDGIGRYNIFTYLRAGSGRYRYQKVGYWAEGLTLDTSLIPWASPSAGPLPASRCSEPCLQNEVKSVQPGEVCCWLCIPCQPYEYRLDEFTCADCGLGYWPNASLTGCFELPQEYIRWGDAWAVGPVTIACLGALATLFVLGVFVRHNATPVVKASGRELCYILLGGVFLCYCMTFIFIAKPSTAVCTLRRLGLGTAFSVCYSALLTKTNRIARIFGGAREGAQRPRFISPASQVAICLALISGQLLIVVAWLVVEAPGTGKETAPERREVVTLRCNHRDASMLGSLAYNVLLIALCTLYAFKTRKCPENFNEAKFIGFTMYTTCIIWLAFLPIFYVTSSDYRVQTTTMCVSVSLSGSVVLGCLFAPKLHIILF
In words: mGluR2 potentiator assays described herein (FLIPR calcium mobilization in HEK 293 cells expressing chimeric mGluR2/CaR, or [35S]-GTPγS binding with CHO cell membranes). The format is cell-based. To be noted: assay not specified (FLIPR or [35S]-GTPγS); allosteric activator/potentiator activity at mGluR2. From the text:
The pharmacological properties of the compounds of the invention can be analyzed using standard assays for functional activity. Examples of glutamate receptor assays are well known in the art as described in, for example, Aramori et al., 1992, Neuron, 8:757; Tanabe et al., 1992, Neuron, 8:169; Miller et al., 1995, J. Neuroscience, 15:6103; Balazs, et al., 1997, J. Neurochemistry, 1997, 69:151. The methodology described in these publications is incorporated herein by reference. Conveniently, the compounds of the invention can be studied by means of an assay that measures the mobilization of intracellular calcium, [Ca^2+]i in cells expressing mGluR2.
Fluorometric Imaging Plate Reader (FLIPR) analysis was used to detect allosteric activators of mGluR2 via calcium mobilization. A clonal HEK 293 cell line expressing a chimeric mGluR2/CaR construct comprising the extracellular and transmembrane domains of human mGluR2 and the intracellular domain of the human calcium receptor, fused to the promiscuous chimeric protein Gαqi5 was used. […] At 24-hours prior to analysis, the cells were trypsinized and plated in DMEM at 100,000 cells/well in black sided, clear-bottom, collagen I coated, 96-well plates. The plates were incubated under 5% CO2 at 37° C. overnight. Cells were loaded with 6 μM fluo-3 acetoxymethylester (Molecular Probes, Eugene Oreg.) for 60 minutes at room temperature. […]
FLIPR experiments were done using a laser setting of 0.8 W and a 0.4 second CCD camera shutter speed. […] An addition of test compound (0.01 μM to 30 μM in duplicate) was made after 10 seconds of baseline fluorescent readings were recorded on FLIPR. Fluorescent signals were then recorded for an additional 75 seconds at which point a second addition of DCG-IV (0.2 μM) was made and fluorescent signals were recorded for an additional 65 seconds. Fluorescent signals were measured as the peak height of the response within the sample period. Data was analyzed using Assay Explorer, and EC50 and Emax values (relative to maximum DCG-IV effect) were calculated using a four parameter logistic equation.
A [^35S]-GTPγS binding assay was used to functionally assay mGluR2 receptor activation. The allosteric activator activity of compounds at the human mGluR2 receptor were measured using a [^35S]-GTPγS binding assay with membranes prepared from CHO cells which stably express the human mGluR2. […] The GTPγS binding assay therefore provides a quantitative measure of receptor activation.
Membranes were prepared from CHO cells stably transfected with human mGluR2. […] The amount of radioactivity bound was determined by counting plates on the Packard TopCount. […]
Background: Calcium flux is commonly read through the fluorescence of an indicator in the cells.
Broadly, the pEC50 is −log10 of the EC50, conventionally taken in molar units. For `Cc1cc(-c2nc(CN3CCN(C=O)CC3)no2)cc2c1C(=O)N(Cc1ccc(OC(F)(F)F)cc1)C2` [Example 10.4, 4-{5-[7-Methyl-1-oxo-2-(4-trifluoromethoxy-benzyl)-2,3-dihydro-1H-isoindol-5-yl]-[1,2,4]oxadiazol-3-ylmethyl}-piperazine-1-carbaldehyde], the pEC50 was 6.64. Turning to `Cc1cc(CC2CCN(Cc3ccccc3F)CC2)cc2c1C(=O)N(CC1CC1)C2` [Example 11, 2-Cyclopropylmethyl-5-[1-(2-fluorobenzyl)-piperidin-4-ylmethyl]-7-methyl-2,3-dihydro-isoindol-1-one], the pEC50 was 7.08. On to `Cc1cc(CC2CCN(Cc3ccc(F)cc3)CC2)cc2c1C(=O)N(CC1CCCCC1)C2` [Example 13.7, 2-Cyclohexylmethyl-5-[1-(4-fluoro-benzyl)-piperidin-4-ylmethyl]-7-methyl-2,3-dihydro-isoindol-1-one], for which the pEC50 was 7.55. In the case of `O=C1c2c(Cl)cc(-c3noc(CN4CCC(F)CC4)n3)cc2CN1Cc1ccc(OC(F)(F)F)cc1` [Example 8.3, 7-Chloro-5-[5-(4-fluoro-piperidin-1-ylmethyl)-[1,2,4]oxadiazol-3-yl]-2-(4-trifluoromethoxy-benzyl)-2,3-dihydro-isoindol-1-one], the negative-log EC50 (pEC50) is 7.12.
